Assay results as given in ChEMBL document CHEMBL1201862, “PubChem BioAssay data set” (2004).
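Cultured in 96-well plates, cells were exposed to test compound for 48 hours across five concentrations. Abbreviation: GI50, concentration required for 50% inhibition of growth.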 Activity calls are given as the source filed them. Cut-off read from the data, not from the text of the source: active = GI50 up to about 1.1 µM and inactive = higher. Residues, ends and D or L forms follow the SMILES beside them.

Key:
Assay in all cases: DTP human tumour cell line panel, 48 h
786-0 = system: 786-0
A498 = system: A498
HCT-15 = system: HCT-15
Hs-578T = system: Hs-578T
K562 = system: K562
MCF7 = system: MCF7
MDA-MB-231 = system: MDA-MB-231
MDA-MB-435 = system: MDA-MB-435
MDA-N = system: MDA-N
MOLT-4 = system: MOLT-4
NCI-H23 = system: NCI-H23
NCI-H460 = system: NCI-H460
NCI/ADR-RES = system: NCI/ADR-RES
OVCAR-4 = system: OVCAR-4
OVCAR-5 = system: OVCAR-5
RPMI-8226 = system: RPMI-8226
SF-539 = system: SF-539
SK-MEL-2 = system: SK-MEL-2
SW-620 = system: SW-620
UACC-257 = system: UACC-257

| SMILES | GI50 (786-0) | GI50 (A498) | GI50 (HCT-15) [µM] | GI50 (Hs-578T) | GI50 (K562) | GI50 (MCF7) | GI50 (MDA-MB-231) | GI50 (MDA-MB-435) | GI50 (MDA-N) | GI50 (MOLT-4) | GI50 (NCI-H23) | GI50 (NCI-H460) | GI50 (NCI/ADR-RES) | GI50 (OVCAR-4) | GI50 (OVCAR-5) | GI50 (RPMI-8226) | GI50 (SF-539) | GI50 (SK-MEL-2) | GI50 (SW-620) | GI50 (UACC-257) |
| --- | --- | --- | --- | --- | --- | --- | --- | --- | --- | --- | --- | --- | --- | --- | --- | --- | --- | --- | --- | --- |
| CCCCc1ccc(Nc2nc(Cl)c3c(ncn3COCCOC(C)=O)n2)cc1 | 20.1 µM (inactive) | 20.5 µM (inactive) | 16.3 | 21.5 µM (inactive) | 24.4 µM (inactive) | 22.5 µM (inactive) | 18.5 µM (inactive) | 17.7 µM (inactive) | 18.8 µM (inactive) | 20.4 µM (inactive) | 18.7 µM (inactive) | 18.3 µM (inactive) | 23.5 µM (inactive) | 24.8 µM (inactive) | 18.5 µM (inactive) | 29 µM (inactive) | 19 µM (inactive) | 19.1 µM (inactive) | 23.1 µM (inactive) | 17.1 µM (inactive) |
| CCc1ccccc1N1CCN(C(=O)c2cc(OC)c(OC)c(OC)c2)CC1 | < 0.0149 µM (active) | 0.0303 µM (active) | 0.0259 | 0.0144 µM (active) | 0.0235 µM (active) | 0.0178 µM (active) | 0.057 µM (active) | < 0.01 µM (active) | < 0.01 µM (active) | 0.148 µM (active) | 0.0557 µM (active) | 0.0307 µM (active) | 0.0151 µM (active) | 1.15 µM (inactive) | 4.14 µM (inactive) | 0.149 µM (active) | 0.0212 µM (active) | 0.0247 µM (active) | 0.0208 µM (active) | 0.0247 µM (active) |
| CS[C@]12[C@@H]3C(=O)N(C)C(=O)[C@@H]3[C@](C)(C(=O)N1C)C(=O)N2c1ccccc1 | > 100 µM (inactive) | > 100 µM (inactive) | > 100 | > 100 µM (inactive) | – | > 100 µM (inactive) | > 100 µM (inactive) | > 100 µM (inactive) | > 100 µM (inactive) | > 100 µM (inactive) | > 100 µM (inactive) | – | > 100 µM (inactive) | > 100 µM (inactive) | > 100 µM (inactive) | > 100 µM (inactive) | > 100 µM (inactive) | > 100 µM (inactive) | > 100 µM (inactive) | > 100 µM (inactive) |
| O=c1n(-c2ccccc2)c(=O)n2n1C1Cc3ccccc3C12 (configuration not stated) | > 100 µM (inactive) | > 100 µM (inactive) | > 100 | 15 µM (inactive) | > 100 µM (inactive) | > 100 µM (inactive) | > 100 µM (inactive) | > 100 µM (inactive) | > 100 µM (inactive) | > 100 µM (inactive) | > 100 µM (inactive) | > 100 µM (inactive) | > 100 µM (inactive) | – | > 100 µM (inactive) | > 100 µM (inactive) | > 100 µM (inactive) | > 100 µM (inactive) | > 100 µM (inactive) | > 100 µM (inactive) |
| CCOC(=O)C#Cc1ccccc1 | 4.84 µM (inactive) | 21.3 µM (inactive) | 8.09 | 19.3 µM (inactive) | 2.14 µM (inactive) | 10.1 µM (inactive) | 16.4 µM (inactive) | 7.18 µM (inactive) | 4.09 µM (inactive) | 2.9 µM (inactive) | 7.26 µM (inactive) | 60 µM (inactive) | 4.82 µM (inactive) | 2.54 µM (inactive) | 5.08 µM (inactive) | 12.2 µM (inactive) | 5.74 µM (inactive) | 1.69 µM (inactive) | 8.2 µM (inactive) | 33.9 µM (inactive) |
| Cc1nc2c(=O)n3c4c(cccc4c2o1)CCC3 | > 100 µM (inactive) | > 100 µM (inactive) | 49.4 | > 100 µM (inactive) | 72.8 µM (inactive) | > 100 µM (inactive) | > 100 µM (inactive) | > 100 µM (inactive) | > 100 µM (inactive) | 37.9 µM (inactive) | > 100 µM (inactive) | 78 µM (inactive) | > 100 µM (inactive) | > 100 µM (inactive) | > 100 µM (inactive) | > 100 µM (inactive) | 73.5 µM (inactive) | > 100 µM (inactive) | > 100 µM (inactive) | > 100 µM (inactive) |
| N#C[C@H](C(=O)c1ccccc1F)c1nc2ccccc2[nH]1 | > 100 µM (inactive) | 87.9 µM (inactive) | > 100 | 85.5 µM (inactive) | > 100 µM (inactive) | 92 µM (inactive) | > 100 µM (inactive) | > 100 µM (inactive) | > 100 µM (inactive) | > 100 µM (inactive) | > 100 µM (inactive) | > 100 µM (inactive) | > 100 µM (inactive) | > 100 µM (inactive) | > 100 µM (inactive) | > 100 µM (inactive) | > 100 µM (inactive) | > 100 µM (inactive) | > 100 µM (inactive) | > 100 µM (inactive) |
| CCOC(CCNCC(OCC)OCC)OCC | > 10 µM (inactive) | > 10 µM (inactive) | > 10 | > 10 µM (inactive) | > 10 µM (inactive) | > 10 µM (inactive) | > 10 µM (inactive) | > 10 µM (inactive) | > 10 µM (inactive) | > 10 µM (inactive) | > 10 µM (inactive) | > 10 µM (inactive) | > 10 µM (inactive) | > 10 µM (inactive) | > 10 µM (inactive) | > 10 µM (inactive) | > 10 µM (inactive) | > 10 µM (inactive) | – | > 10 µM (inactive) |
| CCC(C)C(NC(=O)C1CCCN1)C(=O)NC(C(=O)NCC(=O)NC(CC(N)=O)C(=O)NC(CC(C)C)C(=O)NC(CC(C)C)C(=O)NC(CCCCN)C(N)=O)C(C)C (configuration not stated) (H-PIVGNLLK-NH2; configuration not given here) | > 75 µM (inactive) | > 75 µM (inactive) | > 75 | > 75 µM (inactive) | > 75 µM (inactive) | > 75 µM (inactive) | > 75 µM (inactive) | > 75 µM (inactive) | > 75 µM (inactive) | > 75 µM (inactive) | > 75 µM (inactive) | – | > 75 µM (inactive) | > 75 µM (inactive) | > 75 µM (inactive) | > 75 µM (inactive) | > 75 µM (inactive) | > 75 µM (inactive) | > 75 µM (inactive) | > 75 µM (inactive) |
| O=[N+]([O-])c1ccc(C2=NOC(c3ccc(Cl)cc3)N2C23CC4CC(CC(C4)C2)C3)cc1 (configuration not stated) | > 100 µM (inactive) | > 100 µM (inactive) | 97.1 | 34.9 µM (inactive) | > 100 µM (inactive) | 40.6 µM (inactive) | > 100 µM (inactive) | > 100 µM (inactive) | > 100 µM (inactive) | 33.3 µM (inactive) | > 100 µM (inactive) | > 100 µM (inactive) | > 100 µM (inactive) | > 100 µM (inactive) | – | 15.5 µM (inactive) | > 100 µM (inactive) | 20.2 µM (inactive) | > 100 µM (inactive) | > 100 µM (inactive) |
| COc1cc(OC)c(OC)cc1/C=C/c1nc2ccccc2s1 | > 100 µM (inactive) | 86.5 µM (inactive) | > 100 | 67 µM (inactive) | 5.42 µM (inactive) | 82.4 µM (inactive) | > 100 µM (inactive) | 3.1 µM (inactive) | 17.5 µM (inactive) | 34.2 µM (inactive) | 86.5 µM (inactive) | > 100 µM (inactive) | > 100 µM (inactive) | – | > 100 µM (inactive) | 31 µM (inactive) | > 100 µM (inactive) | > 100 µM (inactive) | > 100 µM (inactive) | > 100 µM (inactive) |
| COc1cc(C=O)cc(/C=N/N=C/c2ccccc2O)c1O | 19.2 µM (inactive) | > 100 µM (inactive) | 40.1 | 2.92 µM (inactive) | – | 64.7 µM (inactive) | 23.7 µM (inactive) | 23.9 µM (inactive) | 25 µM (inactive) | 0.0182 µM (active) | 23.6 µM (inactive) | 31.4 µM (inactive) | 36 µM (inactive) | > 100 µM (inactive) | – | 16.4 µM (inactive) | 4.73 µM (inactive) | 17.3 µM (inactive) | 62.2 µM (inactive) | 32.9 µM (inactive) |
| Cc1cn(C2CC(n3cc(Cn4cc(F)c(=O)[nH]c4=O)nn3)C(CO)O2)c(=O)[nH]c1=O (configuration not stated) | > 100 µM (inactive) | > 100 µM (inactive) | > 100 | > 100 µM (inactive) | – | > 100 µM (inactive) | > 100 µM (inactive) | > 100 µM (inactive) | > 100 µM (inactive) | > 100 µM (inactive) | > 100 µM (inactive) | – | > 100 µM (inactive) | > 100 µM (inactive) | > 100 µM (inactive) | > 100 µM (inactive) | > 100 µM (inactive) | > 100 µM (inactive) | > 100 µM (inactive) | > 100 µM (inactive) |
| O=C(Cn1c(C(=O)/C=C/c2ccco2)nc2ccccc21)c1ccc(Cl)cc1 | 14.3 µM (inactive) | 17.2 µM (inactive) | 20.6 | 1.29 µM (inactive) | 11.7 µM (inactive) | 19.9 µM (inactive) | 20.2 µM (inactive) | 12.1 µM (inactive) | 17.1 µM (inactive) | – | 11.9 µM (inactive) | 12.3 µM (inactive) | 11.8 µM (inactive) | 14.4 µM (inactive) | > 100 µM (inactive) | 10.1 µM (inactive) | 44.9 µM (inactive) | 12.3 µM (inactive) | 25.4 µM (inactive) | 14.5 µM (inactive) |
| CCOC1OC(COC(=O)C(C)(C)C)C(O)CC1n1cc(C)c(=O)[nH]c1=O (configuration not stated) | > 100 µM (inactive) | > 100 µM (inactive) | > 100 | > 100 µM (inactive) | > 100 µM (inactive) | > 100 µM (inactive) | > 100 µM (inactive) | > 100 µM (inactive) | > 100 µM (inactive) | – | > 100 µM (inactive) | > 100 µM (inactive) | > 100 µM (inactive) | > 100 µM (inactive) | > 100 µM (inactive) | > 100 µM (inactive) | > 100 µM (inactive) | > 100 µM (inactive) | > 100 µM (inactive) | > 100 µM (inactive) |
